Several values for one entry are separate records, joined by “and”; a condition that tells them apart may be missing. Equal values may be shown once.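 How tested: cells in 96-well plates exposed to compound for 48 hours at five concentrations. Here, GI50 denotes the concentration required for 50% inhibition of growth. Definition used: TGI = concentration required for complete inhibition of growth.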

Among the test systems are SR leukemia; OVCAR-4 ovarian; SNB-75 CNS; OVCAR-5 ovarian; CCRF-CEM leukemia; ACHN renal; HL-60(TB) leukemia; 786-0 renal; HOP-92 NSCLC; HOP-62 NSCLC.
What all share (experiment): NCI-60 cell line screen, 48 h

As for `OCC(O)CC[CH2][Sn]([c]1ccccc1)([c]1ccccc1)[c]1ccccc1` (stereo not drawn), the GI50 was 49.3 µM in the test with SR leukemia; 16.5 µM in the test with OVCAR-4 ovarian; 15.4 µM with SNB-75 CNS; 14.9 µM in the test on OVCAR-5 ovarian; 13.7 µM in the test on CCRF-CEM leukemia; 8.89 µM in the test with ACHN renal. The GI50 with HL-60(TB) leukemia was 11.3 µM; in the test with 786-0 renal, 14.8 µM; in the test on HOP-92 NSCLC, 10.9 µM; in the test on HOP-62 NSCLC it was 18.4 µM. Further, the TGI in the test with SR leukemia is greater than 100 µM; in the test on OVCAR-4 ovarian it was 32.2 µM; with SNB-75 CNS it was 29 µM; in the test with OVCAR-5 ovarian it was 28.3 µM; in the test with CCRF-CEM leukemia it was 41.6 µM; in the test with ACHN renal, 21 µM. Further, the TGI in the test with HL-60(TB) leukemia is 35.3 µM; with 786-0 renal it was 28.2 µM; in the test on HOP-92 NSCLC, 24 µM; in the test on HOP-62 NSCLC, 39.1 µM.

As for `COC(=O)N1[C@H]2Cc3c(OC)c(C)c(OC)c(OC)c3[C@@H]1/C(=C\c1cc(OC)c(OC)c(C)c1OC)N(Cc1ccccc1)C2=O`, the TGI is 94.1 µM in the test with SR leukemia; greater than 100 µM with OVCAR-4 ovarian; greater than 100 µM in the test on SNB-75 CNS; greater than 100 µM in the test with OVCAR-5 ovarian; greater than 100 µM in the test with CCRF-CEM leukemia; greater than 100 µM in the test on ACHN renal. Besides, the TGI in the test with HL-60(TB) leukemia was 30.2 µM; in the test on 786-0 renal, greater than 100 µM; in the test on HOP-92 NSCLC it was greater than 100 µM; in the test on HOP-62 NSCLC, greater than 100 µM.

Turning to `COCCNCC(O)Cn1c2ccc(Cl)cc2c2cc(Cl)ccc21` (stereo not drawn), the GI50 with SR leukemia is 2.98 µM; in the test on OVCAR-4 ovarian it was 2.01 µM; in the test on SNB-75 CNS, 1.12 µM; in the test on OVCAR-5 ovarian, 2.15 µM; in the test with CCRF-CEM leukemia, 1.92 µM; in the test on ACHN renal, 1.87 µM. For the same compound, the GI50 in the test with HL-60(TB) leukemia was 2.05 µM; in the test on 786-0 renal, 1.8 µM; with HOP-92 NSCLC, 1.57 µM; with HOP-62 NSCLC it was 1.87 µM. The TGI is 6.92 µM in the test with SR leukemia; 5.2 µM in the test with OVCAR-4 ovarian; 4.15 µM with SNB-75 CNS; 5.23 µM in the test on OVCAR-5 ovarian; 4.25 µM in the test on CCRF-CEM leukemia; 3.76 µM in the test on ACHN renal. For the same compound, the TGI with HL-60(TB) leukemia is 4.51 µM; in the test on 786-0 renal, 3.42 µM; in the test on HOP-92 NSCLC, 5.17 µM; in the test on HOP-62 NSCLC, 3.45 µM.

Turning to `Cc1nc2sc(C(=O)Nc3cccc4ccccc34)c(N)c2cc1C(C)O` (stereo not drawn), the GI50 in the test with SR leukemia is 0.15 µM; in the test with OVCAR-4 ovarian, 1.51 µM; with SNB-75 CNS, 0.119 µM; in the test on OVCAR-5 ovarian, 1.5 µM; in the test on CCRF-CEM leukemia, 0.21 µM; with ACHN renal it was 0.284 µM. For the same compound, the GI50 in the test with HL-60(TB) leukemia was 0.124 µM; in the test on 786-0 renal, 0.227 µM; with HOP-92 NSCLC, 1.03 µM; in the test with HOP-62 NSCLC, 0.244 µM. The TGI in the test on SR leukemia, in the test on OVCAR-4 ovarian, with SNB-75 CNS, with OVCAR-5 ovarian, in the test on CCRF-CEM leukemia and with ACHN renal was greater than 50 µM each time. Further, the TGI is 0.355 µM in the test on HL-60(TB) leukemia, greater than 50 µM with 786-0 renal, greater than 47 µM with HOP-92 NSCLC and greater than 50 µM in the test on HOP-62 NSCLC.

Take `Brc1c[n+](Cc2ccc3ccccc3c2)cn1Cc1ccc2ccccc2c1`: the GI50 in the test with SR leukemia is 1.17 µM; with OVCAR-4 ovarian it was 1.32 µM; in the test on SNB-75 CNS it was 1.34 µM; with OVCAR-5 ovarian, 2.13 µM; in the test with CCRF-CEM leukemia, 1.69 µM; in the test on ACHN renal it was 11.8 µM. Further, the GI50 was 1.15 µM in the test on HL-60(TB) leukemia, 1.75 µM with 786-0 renal, 0.904 µM in the test with HOP-92 NSCLC and 2.16 µM in the test on HOP-62 NSCLC. Moreover, the TGI in the test with SR leukemia is 5.11 µM; in the test on OVCAR-4 ovarian, 2.76 µM; in the test on SNB-75 CNS, 3.03 µM; in the test on OVCAR-5 ovarian it was 8.71 µM; in the test with CCRF-CEM leukemia, 5.04 µM; with ACHN renal, 25.5 µM. Also, the TGI in the test with HL-60(TB) leukemia is 3.68 µM; in the test on 786-0 renal, 3.33 µM; in the test on HOP-92 NSCLC it was 2.39 µM; with HOP-62 NSCLC it was 5.96 µM.

As to `O=C(NNc1nc2cc(F)ccc2n2c(CN3CCOCC3)ccc12)c1ccccc1`, the GI50 in the test with SR leukemia is 0.0639 µM; in the test with OVCAR-4 ovarian it was 0.152 µM; in the test with SNB-75 CNS, 0.3 µM; with OVCAR-5 ovarian, 0.474 µM; in the test with CCRF-CEM leukemia, 0.0978 µM; in the test with ACHN renal it was 0.079 µM. Besides, the GI50 in the test with HL-60(TB) leukemia was 0.25 µM; in the test with 786-0 renal, 0.305 µM; in the test on HOP-92 NSCLC, 0.791 µM; with HOP-62 NSCLC, 0.117 µM. Also, the TGI in the test with OVCAR-4 ovarian turned out to be 1.39 µM; in the test on SNB-75 CNS, 3.63 µM; in the test with OVCAR-5 ovarian, 3.45 µM; with CCRF-CEM leukemia it was 4.44 µM; in the test on ACHN renal it was 1.41 µM; in the test on HL-60(TB) leukemia, 0.931 µM. The figures for the TGI in the test on 786-0 renal, in the test with HOP-92 NSCLC and with HOP-62 NSCLC were 1.98 µM, 2.87 µM and 4.03 µM, respectively.

On to `COC1/C=C/O[C@@]2(C)Oc3c(C)c(O)c4c(O)c(cc(O)c4c3C2=O)NC(=O)/C(C)=C\C=C\[C@H](C)C(O)[C@@H](C)[C@@H](O)[C@@H](C)[C@H](OC(C)=O)[C@@H]1C` (stereo partly drawn), for which the GI50 in the test on SR leukemia was 3.92 µM; with OVCAR-4 ovarian it was 16 µM; in the test on SNB-75 CNS it was 18.1 µM; with CCRF-CEM leukemia it was 0.504 µM; in the test with ACHN renal, 16.9 µM; in the test on HL-60(TB) leukemia it was 6.07 µM and 5.19 µM. In addition, the GI50 with 786-0 renal is 4.29 µM; in the test with HOP-92 NSCLC, 12 µM; with HOP-62 NSCLC, 18.8 µM. Further, the TGI in the test on SR leukemia was 20.6 µM and 42.7 µM; with OVCAR-4 ovarian, 30.6 µM and 28.3 µM; in the test with SNB-75 CNS it was 32.3 µM and 119 µM; in the test with OVCAR-5 ovarian, 80.1 µM; with CCRF-CEM leukemia, 4.07 µM and 32.6 µM; in the test with ACHN renal it was 30.5 µM and 41.9 µM. Besides, the TGI was 27.4 µM and 18 µM in the test on HL-60(TB) leukemia; 15.9 µM and 29.5 µM in the test on 786-0 renal; 24.3 µM and 23.6 µM in the test on HOP-92 NSCLC; 32.8 µM and 237 µM with HOP-62 NSCLC.

For `CC(C)(C)c1nc2c(o1)C(=Nc1ccccc1)c1ccccc1C2=O`, the TGI is greater than 100 µM with SR leukemia; 10.2 µM with OVCAR-4 ovarian; 13.6 µM with SNB-75 CNS; 29.4 µM in the test on OVCAR-5 ovarian; greater than 100 µM in the test with CCRF-CEM leukemia; 26.6 µM in the test on ACHN renal. Moreover, the TGI in the test on HL-60(TB) leukemia stood at 16.6 µM; with 786-0 renal, 64.3 µM; in the test on HOP-92 NSCLC, 23.8 µM; in the test with HOP-62 NSCLC it was 31 µM.

The values above are taken from PubChem BioAssay (NCI).
